Data taken from patent US12171768B2, “IRAK4 degraders and uses thereof” (priority 2021, dated 2024).
“Also recorded” adds a separate entry of the source. Like-named read-outs stand apart in the source and are kept apart here.

Assays:
[1] = target: CYP2C19 (Homo sapiens, UniProt P33261); assay: In vitro drug-drug interaction study, CYP2C19; format: in vitro ADME
[2] = target: CYP3A4 (Homo sapiens, UniProt P08684); assay: In vitro drug-drug interaction study, CYP3A4; format: in vitro ADME
[3] = Phase 1 SAD safety and tolerability; format: in vivo, human
Experimental: The safety data up to 24-hours post-dose for these sentinel HVs will be reviewed by the Investigator to ensure acceptable tolerability before commencing administration of the investigational product to the remaining HVs in the cohort. Sequential dosing of HVs within a cohort will be staggered so that there will be at least a gap of 10 minutes between dosing of individual HVs. After the completion of each dose level, the blinded interim PK data through Day 5 and safety data through Day 14 will be reviewed by the SRC before proceeding to the next dose level. Each subsequent dose administration will be performed, if in the judgment of the Investigator and Safety Physician, the results of the safety analyses of the preceding dose administration are satisfactory.
(§1) All data will be fully listed.

[4] = tested on: R848- or LPS-mediated induction of pro-inflammatory cytokines in whole blood; assay: Phase 1 SAD ex vivo proinflammatory cytokine induction by R848 and LPS in whole blood; parameters: species or system human; conditions: for Mean maximum percent change from baseline, IFNγ / Mean maximum percent change from baseline, IL1β / Mean maximum percent change from baseline, IL6 / Mean maximum percent change from baseline, IL8 / Mean maximum percent change from baseline, IL10 / Mean maximum percent change from baseline, IL12 / Mean maximum percent change from baseline, IL17 / Mean maximum percent change from baseline, TNFα: Cohort 7
[5] = tested on: ex vivo proinflammatory cytokine induction by R848 and LPS in whole blood; assay: Phase 1 MAD ex vivo proinflammatory cytokine induction by R848 and LPS in whole blood; parameters: species or system human; conditions: Day 7-14, daily up to about 200 mg
From the text: In some embodiments, the cytokines include IFN-γ, IL-12, IL-1β, IL-10, IL-6, TNF-α, IL-8, IL-17, and IL-23.

[6] = target: P-glycoprotein (P-gp) (Homo sapiens, UniProt P08183); assay: P-gp substrate identification in vitro; format: in vitro ADME
Sequence of P-glycoprotein (P-gp) (P08183 whole entry): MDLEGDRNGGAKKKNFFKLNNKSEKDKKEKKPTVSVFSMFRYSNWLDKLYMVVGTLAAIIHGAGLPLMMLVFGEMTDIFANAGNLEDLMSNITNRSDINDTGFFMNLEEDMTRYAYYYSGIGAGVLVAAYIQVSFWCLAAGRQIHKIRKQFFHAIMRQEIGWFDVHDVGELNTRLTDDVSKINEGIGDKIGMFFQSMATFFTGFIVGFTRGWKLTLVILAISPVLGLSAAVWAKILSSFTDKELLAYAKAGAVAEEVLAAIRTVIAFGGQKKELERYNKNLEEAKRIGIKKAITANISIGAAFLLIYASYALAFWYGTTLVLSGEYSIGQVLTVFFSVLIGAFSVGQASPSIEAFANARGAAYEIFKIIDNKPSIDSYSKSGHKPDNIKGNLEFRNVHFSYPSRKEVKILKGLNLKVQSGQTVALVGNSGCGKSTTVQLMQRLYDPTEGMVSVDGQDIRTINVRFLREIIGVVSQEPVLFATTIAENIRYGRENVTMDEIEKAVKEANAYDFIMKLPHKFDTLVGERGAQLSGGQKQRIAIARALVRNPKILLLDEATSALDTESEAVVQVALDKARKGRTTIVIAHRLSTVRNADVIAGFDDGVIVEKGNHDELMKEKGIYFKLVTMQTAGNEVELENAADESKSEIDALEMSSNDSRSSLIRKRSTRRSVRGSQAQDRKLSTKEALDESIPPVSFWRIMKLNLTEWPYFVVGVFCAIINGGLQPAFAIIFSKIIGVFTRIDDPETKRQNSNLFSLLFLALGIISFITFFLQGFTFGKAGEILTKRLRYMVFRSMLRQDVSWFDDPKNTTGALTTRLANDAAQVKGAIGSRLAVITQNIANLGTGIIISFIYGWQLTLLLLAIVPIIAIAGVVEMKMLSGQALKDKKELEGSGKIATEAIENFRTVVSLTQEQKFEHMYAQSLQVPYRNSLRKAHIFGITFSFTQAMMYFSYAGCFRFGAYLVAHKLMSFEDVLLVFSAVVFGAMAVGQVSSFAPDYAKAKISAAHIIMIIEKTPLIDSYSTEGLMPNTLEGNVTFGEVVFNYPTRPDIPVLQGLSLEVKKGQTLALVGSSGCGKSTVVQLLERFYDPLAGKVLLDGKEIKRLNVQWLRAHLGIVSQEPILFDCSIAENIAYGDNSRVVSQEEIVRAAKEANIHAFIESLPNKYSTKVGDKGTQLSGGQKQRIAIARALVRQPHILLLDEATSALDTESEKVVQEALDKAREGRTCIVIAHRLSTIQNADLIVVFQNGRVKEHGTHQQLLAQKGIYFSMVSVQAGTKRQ

[7] = Permeability; format: in vitro ADME
[8] = Red blood cell partitioning; format: in vitro ADME
[9] = tested on: IRAK4; assay: In vitro IRAK4 degradation in monkey PBMCs; format: cell-based
[10] = Phase 1 MAD Compound A concentration in skin; format: in vivo; conditions: human, oral, Day 14, once daily dosing, read-out: Ctrough (pre-dose) levels in skin relative to plasma
[11] = Phase 1 MAD safety and tolerability; format: in vivo, human; conditions: multiple daily doses over 14 days up to 200 mg (MAD 4)
From the text: Part B: Part B is a double-blind, randomized, placebo-controlled, MAD, sequential group study in 48 adult HVs, divided in 4 cohorts of 12 adult HVs in each cohort. One or more additional cohorts may be added, as needed.
as §1

[12] = target: T1, breast cancer resistance protein (BCRP) (Homo sapiens, UniProt Q9UNQ0); assay: BCRP substrate and efflux inhibition in vitro; format: in vitro ADME
T1 sequence (Q9UNQ0 1-655): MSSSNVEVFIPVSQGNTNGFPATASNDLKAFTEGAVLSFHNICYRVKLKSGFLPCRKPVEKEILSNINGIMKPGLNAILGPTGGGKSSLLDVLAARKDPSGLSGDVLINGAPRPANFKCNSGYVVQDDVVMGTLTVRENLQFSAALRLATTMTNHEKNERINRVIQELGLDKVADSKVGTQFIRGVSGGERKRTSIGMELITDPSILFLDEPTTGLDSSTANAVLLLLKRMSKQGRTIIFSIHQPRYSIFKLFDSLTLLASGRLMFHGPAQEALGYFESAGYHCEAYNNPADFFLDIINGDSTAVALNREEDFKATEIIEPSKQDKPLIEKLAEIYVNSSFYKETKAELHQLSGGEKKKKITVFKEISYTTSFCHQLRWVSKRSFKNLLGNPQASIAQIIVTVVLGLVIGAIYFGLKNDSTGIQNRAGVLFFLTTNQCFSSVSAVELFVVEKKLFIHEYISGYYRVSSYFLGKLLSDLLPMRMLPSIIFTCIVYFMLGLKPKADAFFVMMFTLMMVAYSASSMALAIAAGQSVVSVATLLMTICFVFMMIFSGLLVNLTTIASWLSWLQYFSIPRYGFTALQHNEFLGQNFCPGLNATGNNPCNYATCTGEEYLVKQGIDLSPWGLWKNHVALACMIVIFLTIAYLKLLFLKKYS

[13] = Distribution studies in rats; format: in vivo
[14] = tested on: MSU-crystal induced inflammation; assay: Mouse air pouch model of MSU-crystal induced (TLR 2/4-dependent) inflammation; format: in vivo; conditions: 3 days twice daily, 30 to 100 mg/kg
[15] = Solubility; format: physicochemical
[16] = blinded SAD safety, per Investigator assessment

Sequence of CYP3A4 (P08684 whole entry): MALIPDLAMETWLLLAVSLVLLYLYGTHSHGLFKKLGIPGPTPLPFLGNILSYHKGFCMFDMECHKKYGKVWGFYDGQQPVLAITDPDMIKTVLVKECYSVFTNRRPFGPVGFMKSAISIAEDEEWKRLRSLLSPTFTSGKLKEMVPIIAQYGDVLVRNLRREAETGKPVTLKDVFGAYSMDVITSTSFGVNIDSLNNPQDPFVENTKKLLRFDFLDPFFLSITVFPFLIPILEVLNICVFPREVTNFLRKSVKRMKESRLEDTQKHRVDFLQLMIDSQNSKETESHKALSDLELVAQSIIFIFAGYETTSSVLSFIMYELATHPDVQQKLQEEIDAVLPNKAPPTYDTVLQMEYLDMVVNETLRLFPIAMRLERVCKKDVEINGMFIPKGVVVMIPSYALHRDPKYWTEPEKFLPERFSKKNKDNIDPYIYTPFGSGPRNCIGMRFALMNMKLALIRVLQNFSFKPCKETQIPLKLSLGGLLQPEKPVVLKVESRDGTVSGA
Sequence of CYP2C19 (P33261 whole entry): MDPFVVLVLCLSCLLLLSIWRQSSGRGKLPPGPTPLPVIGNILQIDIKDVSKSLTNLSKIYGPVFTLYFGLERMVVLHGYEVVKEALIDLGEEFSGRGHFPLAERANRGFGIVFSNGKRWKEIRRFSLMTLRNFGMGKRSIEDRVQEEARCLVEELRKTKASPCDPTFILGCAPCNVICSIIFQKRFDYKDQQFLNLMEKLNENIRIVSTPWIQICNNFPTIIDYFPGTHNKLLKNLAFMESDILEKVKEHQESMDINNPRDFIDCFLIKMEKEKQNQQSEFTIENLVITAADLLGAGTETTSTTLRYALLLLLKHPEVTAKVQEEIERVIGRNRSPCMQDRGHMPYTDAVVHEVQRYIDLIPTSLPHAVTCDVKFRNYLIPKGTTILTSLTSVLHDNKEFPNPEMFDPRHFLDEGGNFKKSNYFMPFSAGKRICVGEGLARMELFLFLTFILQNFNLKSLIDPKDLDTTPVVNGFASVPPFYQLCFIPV

Compound: Cn1c(=O)n([C@@H]2CCC(=O)NC2=O)c2cccc(C#CCOC3CCN(C[C@H]4CC[C@H](n5cc(NC(=O)c6cnn7ccc(N8C[C@H]9C[C@@H]8CO9)nc67)c(C(F)F)n5)CC4)CC3)c21 [Compound A, 5-((1R,4R)-2-oxa-5-azabicyclo[2.2.1]heptan-5-yl)-N-(3-(difluoromethyl)-1-((1r,4R)-4-((4-((3-(1-(2,6-dioxopiperidin-3-yl)-3-methyl-2-oxo-2,3-dihydro-1H-benzo[d]imidazol-4-yl)prop-2-yn-1-yl)oxy)piperidin-1-yl)methyl)cyclohexyl)-1H-pyrazol-4-yl)pyrazolo[1,5-a]pyrimidine-3-carboxamide]
- Inhibition of CYP2C19 [1]: potential time dependent inhibition
- Inhibition of CYP3A4 [2]: potential time dependent inhibition
- ECG changes ([3]; SAD): No significant ECG changes
- QTcF prolongation ([3]; SAD): no clinically significant QTcF prolongation
- Serious adverse events ([3]; SAD): no serious adverse events; also recorded: No SAEs
- AST elevation ([3]; SAD 5, n=1, resolution ~Day 21): 3.8 × ULN
- ALT elevation ([3]; SAD 5, n=1, slow resolution to baseline): 2.5 × ULN
- Study treatment related AEs, Abdominal pain, #AEs [3, 16]: 1
- Study treatment related AEs, Diarrhea, #AEs [3, 16]: 2
- Study treatment related AEs, Diarrhea, (subjects) [3, 16]: (2)
- Study treatment related AEs, Headache, #AEs [3, 16]: 5
- Study treatment related AEs, Headache, (subjects) [3, 16]: (4)
- Study treatment related AEs, Muscle weakness, #AEs [3, 16]: 1
- Study treatment related AEs, Myalgia, #AEs [3, 16]: 1
- Study treatment related AEs, Nausea, #AEs [3, 16]: 3
- Study treatment related AEs, Nausea, (subjects) [3, 16]: (3)
- Study treatment related AEs, Palpitations, #AEs [3, 16]: 1
- Study treatment related AEs, Vomiting, #AEs [3, 16]: 2
- Study treatment related AEs, Vomiting, (subjects) [3, 16]: (1)
- Safety and tolerability ([3]; single doses, SAD): safe and well-tolerated
- Mean maximum ex vivo cytokine inhibition ([4]; 24-48 h post-dose, LPS or R848, whole blood): up to 97%
- Mean maximum percent change from baseline, IFNγ ([4]; LPS, 24-48 hours): −42%^
- Mean maximum percent change from baseline, IL1β ([4]; LPS, 24-48 hours): −68%^1
- Mean maximum percent change from baseline, IL6 ([4]; LPS, 24-48 hours): −62%^1
- Mean maximum percent change from baseline, IL8 ([4]; LPS, 24-48 hours): −81%^1
- Mean maximum percent change from baseline, IL10 ([4]; LPS, 24-48 hours): −83%^1
- Mean maximum percent change from baseline, IL12 ([4]; LPS, 24-48 hours): −35%^2
- Mean maximum percent change from baseline, IL17 ([4]; LPS, 24-48 hours): −43%^2
- Mean maximum percent change from baseline, TNFα ([4]; LPS, 24-48 hours): −42%^2
- Mean maximum percent change from baseline, IFNγ ([4]; R848, 24-48 hours): −97%^2
- Mean maximum percent change from baseline, IL1β ([4]; R848, 24-48 hours): −92%^1
- Mean maximum percent change from baseline, IL6 ([4]; R848, 24-48 hours): −88%^1
- Mean maximum percent change from baseline, IL8 ([4]; R848, 24-48 hours): −54%^
- Mean maximum percent change from baseline, IL10 ([4]; R848, 24-48 hours): −89%^1
- Mean maximum percent change from baseline, IL12 ([4]; R848, 24-48 hours): −93%^1
- Mean maximum percent change from baseline, IL17 ([4]; R848, 24-48 hours): −79%^1
- Mean maximum percent change from baseline, TNFα ([4]; R848, 24-48 hours): −88%^2
- Inhibition of IFN-γ in whole blood [5]: up to 85%
- P-gp substrate [6]: substrate
- Permeability [7]: moderate; also recorded: medium
- Partitioning into red blood cells [8]: did not significantly partition into red blood cells
- Kp at 14 day [10]: ~10
- Safety and tolerability [11]: safe and well-tolerated
- BCRP efflux inhibition [12]: inhibited BCRP efflux
- BCRP substrate [12]: substrate
- Tissue distribution [13]: extensively distributed into tissues
- IRAK4 levels in the spleen [14]: significantly reduced
- Inflammatory exudate, including neutrophils and IL-1β [14]: significantly reduced
- BCS classification (tentative) [15]: BCS II
- solubility [15]: low
- solubility ([15]; FaSSIF, pH 6.5, fassif, read-out: Solubility in bio-relevant fluid FaSSIF): < 12000 µg/mL
- solubility ([15]; aqueous media, aqueous buffer, across the physiological pH range, read-out: Aqueous solubility): ≤ 3000 µg/mL
